Reference: US20230143604A1, “QW DOSING OF GIP RECEPTOR AGONIST PEPTIDE COMPOUNDS AND USES THEREOF” (TAKEDA PHARMACEUTICAL COMPANY LIMITED, priority 2020, published 2023)
Starred links: 1 amine or outer side, 2 acyl side, 3 side chain; linkers in the order of their positions; H or OH if unused. Positions of bridges follow the written chain, without caps; N, C: chain ends. Non-standard residues stand in square brackets, D forms with d. Residues, ends and D or L forms follow the SMILES beside them. Groups on a side chain read outwards from the residue. Chains are numbered I, II in the order given. No end group written: not given here. *: point of attachment. C18 diacid = O=C(O)CCCCCCCCCCCCCCCCC(=O)*; γGlu = O=C(O)[C@H](CCC(=O)[*:2])N[*:1]; NMeY = CN[C@@H](Cc1ccc(O)cc1)C(=O)O; AEEA = NCCOCCOCC(=O)O; Aib = CC(C)(N)C(=O)O

T1: full-length human GIPR with an N-terminal FLAG tag (human, UniProt P48546 22-466)
T1 sequence (looked up): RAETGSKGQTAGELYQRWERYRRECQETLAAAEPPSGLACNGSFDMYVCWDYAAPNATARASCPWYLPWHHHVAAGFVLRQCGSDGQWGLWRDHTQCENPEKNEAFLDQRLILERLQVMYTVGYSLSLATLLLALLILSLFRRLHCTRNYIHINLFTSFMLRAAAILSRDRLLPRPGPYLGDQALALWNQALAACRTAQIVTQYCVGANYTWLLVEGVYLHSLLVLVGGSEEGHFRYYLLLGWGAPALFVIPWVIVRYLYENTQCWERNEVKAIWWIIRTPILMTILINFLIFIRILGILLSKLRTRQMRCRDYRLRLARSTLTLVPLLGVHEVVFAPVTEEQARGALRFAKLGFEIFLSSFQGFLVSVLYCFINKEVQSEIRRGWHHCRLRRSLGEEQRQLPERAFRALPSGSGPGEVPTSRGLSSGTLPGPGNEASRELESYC


Legend:
physchem = assay: physchem
Outline: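 Solubility at pH 7.4 determined by stepwise addition of 200 mM phosphate buffer in 100 μL increments to 3 mg peptide, mixing briefly each time, until no insoluble material remained, then measured by liquid chromatography.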

[1] = biological target: T1, full-length human GIPR with an …; assay: cell-based or functional assay
[2] = biological target: full-length human GLP-1R with an N-terminal FLAG tag (human, UniProt P43220 24-463); assay: cell-based or functional assay
[3] = pH 7.4, aqueous buffer, pH 7.4 Phosphate Buffer - Solubility, 200 mM Phosphate buffer pH 7.4
[4] = pH 7.4, solubility in phosphate buffer at pH 7.4, 200 mM phosphate buffer pH 7.4

| Molecule | solubility (physchem; pH 7.4, aqueous buffer) [µg/mL] | Human GIPR cAMP EC50, HEK293T [1] [pM] | other results |
| --- | --- | --- | --- |
| CC[C@H](C)[C@H](NC(=O)[C@H](CO)NC(=O)[C@H](Cc1ccc(O)cc1)NC(=O)[C@H](CC(=O)O)NC(=O)[C@H](CO)NC(=O)[C@@H](NC(=O)[C@H](Cc1ccccc1)NC(=O)[C@@H](NC(=O)CNC(=O)[C@H](CCC(=O)O)NC(=O)C(C)(C)NC(=O)[C@H](Cc1ccc(O)cc1)NC)[C@@H](C)O)[C@@H](C)CC)C(=O)N[C@@H](C)C(=O)N[C@@H](CC(C)C)C(=O)N[C@@H](CC(=O)O)C(=O)N[C@@H](CCCNC(=N)N)C(=O)N[C@H](C(=O)N[C@@H](CCCCNC(=O)COCCOCCNC(=O)COCCOCCNC(=O)CC[C@H](NC(=O)CC[C@H](NC(=O)CCCCCCCCCCCCCCCCC(=O)O)C(=O)O)C(=O)O)C(=O)N[C@@H](CCC(N)=O)C(=O)N[C@@H](CCC(N)=O)C(=O)N[C@@H](CC(=O)O)C(=O)N[C@@H](Cc1ccccc1)C(=O)N[C@H](C(=O)N[C@@H](CC(N)=O)C(=O)N[C@@H](Cc1c[nH]c2ccccc12)C(=O)N[C@@H](CC(C)C)C(=O)N[C@@H](CC(C)C)C(=O)N[C@@H](C)C(=O)N[C@@H](CCC(N)=O)C(=O)N[C@@H](CCCNC(=N)N)C(=O)N1CCC[C@H]1C(=O)N[C@@H](CO)C(=O)N[C@@H](CO)C(=O)NCC(=O)O)C(C)C)[C@@H](C)CC [Compound 287] (H-[NMeY][Aib]EGTFISDYSIALDRIK([AEEA-AEEA-γGlu-γGlu-C18 diacid])QQDFVNWLLAQRPSSG-OH) | < 6000 |  |  |
| CC[C@H](C)[C@H](NC(=O)[C@H](CO)NC(=O)[C@H](Cc1ccc(O)cc1)NC(=O)[C@H](CC(=O)O)NC(=O)[C@H](CO)NC(=O)[C@@H](NC(=O)[C@H](Cc1ccccc1)NC(=O)[C@@H](NC(=O)CNC(=O)[C@H](CCC(=O)O)NC(=O)C(C)(C)NC(=O)[C@H](Cc1ccc(O)cc1)NC)[C@@H](C)O)[C@@H](C)CC)C(=O)N[C@@H](C)C(=O)N[C@@H](CC(C)C)C(=O)N[C@@H](CC(=O)O)C(=O)N[C@@H](CCCNC(=N)N)C(=O)N[C@@H](CCCCNC(=O)CNC(=O)CNC(=O)CNC(=O)CNC(=O)CNC(=O)CCCCCCCCCCCCCCCCC(=O)O)C(=O)N[C@@H](C)C(=O)N[C@@H](CCC(N)=O)C(=O)N[C@@H](CCC(N)=O)C(=O)N[C@@H](CC(=O)O)C(=O)N[C@@H](Cc1ccccc1)C(=O)N[C@H](C(=O)N[C@@H](CC(N)=O)C(=O)N[C@@H](Cc1c[nH]c2ccccc12)C(=O)N[C@@H](CC(C)C)C(=O)N[C@@H](CC(C)C)C(=O)N[C@@H](C)C(=O)N[C@@H](CCC(N)=O)C(=O)N[C@@H](CCCNC(=N)N)C(=O)N1CCC[C@H]1C(=O)N[C@@H](CO)C(=O)N[C@@H](CO)C(=O)NCC(=O)O)C(C)C [Compound 288] | < 6000 |  |  |
| CC[C@H](C)[C@H](NC(=O)[C@H](CO)NC(=O)[C@H](Cc1ccc(O)cc1)NC(=O)[C@H](CC(=O)O)NC(=O)[C@H](CO)NC(=O)[C@@H](NC(=O)[C@H](Cc1ccccc1)NC(=O)[C@@H](NC(=O)CNC(=O)[C@H](CCC(=O)O)NC(=O)C(C)(C)NC(=O)[C@H](Cc1ccc(O)cc1)NC)[C@@H](C)O)[C@@H](C)CC)C(=O)N[C@@H](C)C(=O)N[C@@H](CCCCNC(=O)CNC(=O)CNC(=O)[C@@H]1CCCN1C(=O)[C@H](C)NC(=O)[C@@H]1CCCN1C(=O)[C@H](C)NC(=O)[C@@H]1CCCN1C(=O)CCCCCCCCCCCCCCCCC(=O)O)C(=O)N[C@@H](CC(=O)O)C(=O)N[C@@H](CCCNC(=N)N)C(=O)NC(C)(C)C(=O)N[C@@H](C)C(=O)N[C@@H](CCC(N)=O)C(=O)NC(C)(C)C(=O)N[C@@H](CC(=O)O)C(=O)N[C@@H](Cc1ccccc1)C(=O)N[C@H](C(=O)N[C@@H](CC(N)=O)C(=O)N[C@@H](Cc1c[nH]c2ccccc12)C(=O)N[C@@H](CC(C)C)C(=O)N[C@@H](CC(C)C)C(=O)N[C@@H](C)C(=O)N[C@@H](CCC(N)=O)C(=O)N[C@@H](CCCCN)C(=O)NCC(=O)O)C(C)C [Compound 289] (I: H-[NMeY][Aib]EGTFISDYSIAKDR[Aib]AQ[Aib]DFVNWLLAQKG-OH / II: {C18 diacid}-PAPAPGG; amide I:14-II:C) | ≥ 10000 |  |  |
| CC[C@H](C)[C@H](NC(=O)[C@H](CO)NC(=O)[C@H](Cc1ccc(O)cc1)NC(=O)[C@H](CC(=O)O)NC(=O)[C@H](CO)NC(=O)[C@@H](NC(=O)[C@H](Cc1ccccc1)NC(=O)[C@@H](NC(=O)CNC(=O)[C@H](CCC(=O)O)NC(=O)C(C)(C)NC(=O)[C@H](Cc1ccc(O)cc1)NC)[C@@H](C)O)[C@@H](C)CC)C(=O)N[C@@H](C)C(=O)N[C@@H](CC(C)C)C(=O)N[C@@H](CC(=O)O)C(=O)N[C@@H](CCCNC(=N)N)C(=O)N[C@@H](CCCCNC(=O)CNC(=O)CNC(=O)CNC(=O)CNC(=O)CNC(=O)CCCCCCCCCCCCCCCCC(=O)O)C(=O)N[C@@H](C)C(=O)N[C@@H](CCC(N)=O)C(=O)NC(C)(C)C(=O)N[C@@H](CC(N)=O)C(=O)N[C@@H](Cc1ccccc1)C(=O)N[C@H](C(=O)N[C@@H](CC(N)=O)C(=O)N[C@@H](Cc1c[nH]c2ccccc12)C(=O)N[C@@H](CC(C)C)C(=O)N[C@@H](CC(C)C)C(=O)N[C@@H](C)C(=O)N[C@@H](CCC(N)=O)C(=O)N[C@@H](CO)C(=O)N1CCC[C@H]1C(=O)NCC(=O)O)C(C)C [Compound 290] | ≥ 7500 |  |  |
| CC[C@H](C)[C@H](NC(=O)[C@H](CO)NC(=O)[C@H](Cc1ccc(O)cc1)NC(=O)[C@H](CC(=O)O)NC(=O)[C@H](CO)NC(=O)[C@@H](NC(=O)[C@H](Cc1ccccc1)NC(=O)[C@@H](NC(=O)CNC(=O)[C@H](CCC(=O)O)NC(=O)C(C)(C)NC(=O)[C@@H](N)Cc1ccc(O)cc1)[C@@H](C)O)[C@@H](C)CC)C(=O)N[C@@H](C)C(=O)N[C@@H](CCCCNC(=O)CNC(=O)CNC(=O)CNC(=O)CNC(=O)CNC(=O)CCCCCCCCCCCCCCCCC(=O)O)C(=O)N[C@@H](CC(=O)O)C(=O)N[C@@H](CCCNC(=N)N)C(=O)N[C@@H](C)C(=O)N[C@@H](C)C(=O)N[C@@H](CCC(N)=O)C(=O)NC(C)(C)C(=O)N[C@@H](CC(=O)O)C(=O)N[C@@H](Cc1ccccc1)C(=O)N[C@H](C(=O)N[C@@H](CCC(=O)O)C(=O)N[C@@H](Cc1c[nH]c2ccccc12)C(=O)N[C@@H](CC(C)C)C(=O)N[C@@H](CC(C)C)C(=O)N[C@@H](C)C(=O)N[C@@H](CCC(N)=O)C(=O)N[C@@H](CCCNC(=N)N)C(=O)NCC(=O)O)C(C)C [Compound 291] | < 6000 |  |  |
| CC[C@H](C)[C@H](NC(=O)[C@H](CCCNC(=N)N)NC(=O)[C@H](CC(=O)O)NC(=O)[C@H](CCCCNC(=O)CNC(=O)CNC(=O)CNC(=O)CNC(=O)CNC(=O)CCCCCCCCCCCCCCCCC(=O)O)NC(=O)[C@H](C)NC(=O)[C@@H](NC(=O)[C@H](CO)NC(=O)[C@H](Cc1ccc(O)cc1)NC(=O)[C@H](CC(=O)O)NC(=O)[C@H](CO)NC(=O)[C@@H](NC(=O)[C@H](Cc1ccccc1)NC(=O)[C@@H](NC(=O)CNC(=O)[C@H](CCC(=O)O)NC(=O)C(C)(C)NC(=O)[C@H](Cc1ccc(O)cc1)NC)[C@@H](C)O)[C@@H](C)CC)[C@@H](C)CC)C(=O)N[C@@H](C)C(=O)N[C@@H](CCC(N)=O)C(=O)N[C@@H](CCC(N)=O)C(=O)N[C@@H](CC(N)=O)C(=O)N[C@@H](Cc1ccccc1)C(=O)N[C@H](C(=O)N[C@@H](CC(N)=O)C(=O)N[C@@H](Cc1c[nH]c2ccccc12)C(=O)N[C@@H](CC(C)C)C(=O)N[C@@H](CC(C)C)C(=O)N[C@@H](C)C(=O)N[C@@H](CCC(N)=O)C(=O)N[C@@H](CO)C(=O)N1CCC[C@H]1C(=O)N[C@@H](CO)C(=O)N[C@@H](CO)C(=O)NCC(=O)N[C@@H](C)C(=O)N1CCC[C@H]1C(=O)N1CCC[C@H]1C(=O)N1CCC[C@H]1C(=O)N[C@@H](CO)C(=O)O)C(C)C [Compound 292] |  |  | solubility (physchem; [3]): < 6000 µg/mL |
| I: H-[NMeY][Aib]EGTFISDYSIALDR[Aib]AQ[Aib]KFVNWLLAQSPSSGAPPPS-OH / II: {C18 diacid-γGlu}-PAPAPGG (amide I:21-II:C) [Compound 104] |  |  | solubility (physchem; [3]): ≥ 60000 µg/mL; solubility (physchem; [4]): ≥ 15000 µg/mL |
| I: H-[NMeY][Aib]EGTFISDYSIALDR[Aib]KQ[Aib]DFVNWLLAQSPSSGAPPPS-OH / II: {C18 diacid}-PAPAPGG (amide I:18-II:C) [Compound 102] |  |  | solubility (physchem; [3]): ≥ 60000 µg/mL; solubility (physchem; [4]): ≥ 15000 µg/mL |
| [NMeY][Aib]EGTFISDYSIALDRK(2OEGgE‑C18 diacid)HQQNFVNWLLAQRPSSGAPPPS-NH2 [Compound No. 4] |  | 1 | Human GLP1R cAMP EC50, HEK293T [2]: 38900 pM |
| YXEGTFISDYSIXXDRXAQXDFVNWLLAQSG (N-methyl Tyr 1; Aib at 2,13,17,20; Lys(G5-C18 diacid) at 14; C-terminal OH) [Compound No. 53] |  | 0.5 | Human GLP1R cAMP EC50, HEK293T [2]: 47900 pM |
| YXEGTFISDYSIXXDRXAQXDFVNWLLAQRPSSGAPPPS (N-methyl Tyr 1; Aib at 2,13,17,20; Lys(G5-C18 diacid) at 14; C-terminal OH) [Compound No. 54] |  | 0.6 | Human GLP1R cAMP EC50, HEK293T [2]: 120000 pM |
| YXEGTFISDYSIAXDRXAQXNFVNWLLAQSPSSGAPPPS (N-methyl Tyr 1; Aib at 2,17,20; Lys(G5-C20 diacid) at 14; C-terminal OH) [Compound No. 40] |  | 0.7 |  |
| YXEGTFISDYSIAXDRXAQXNFVNWLLAQSPSSGAPPPS (N-methyl Tyr 1; Aib at 2,17,20; Lys(G5-C20 diacid) at 14; C-terminal OH) [Compound No. 112] |  | 0.3 |  |
